# Measured values: patent publication US20240158446A1, “CYCLIC COMPOUND HAVING SELECTIVE INHIBITORY ACTION ON KRAS OVER HRAS AND NRAS” (CHUGAI SEIYAKU KABUSHIKI KAISHA, priority 2021, published 2024)
# Experiments:
# [1] = target: GDP-bound NRAS wild-type protein (Homo sapiens, UniProt P01111); assay: Binding to NRAS by surface plasmon resonance (SPR), Single Cycle Kinetics; conditions: SPR, GDP-bound NRAS wild-type protein vs GDP-bound KRAS wild-type protein
# [2] = target: GDP-bound HRAS wild-type protein (Homo sapiens, UniProt P01112); assay: Binding to HRAS by surface plasmon resonance (SPR), Single Cycle Kinetics; conditions: SPR, GDP-bound HRAS wild-type protein vs GDP-bound KRAS wild-type protein
# Sequence of GDP-bound HRAS wild-type protein (P01112 whole entry): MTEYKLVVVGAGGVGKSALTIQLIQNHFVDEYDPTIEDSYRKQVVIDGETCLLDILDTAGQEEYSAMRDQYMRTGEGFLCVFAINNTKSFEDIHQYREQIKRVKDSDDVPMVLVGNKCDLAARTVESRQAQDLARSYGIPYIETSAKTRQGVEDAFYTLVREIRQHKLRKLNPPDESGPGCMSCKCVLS
# Sequence of GDP-bound NRAS wild-type protein (P01111 whole entry): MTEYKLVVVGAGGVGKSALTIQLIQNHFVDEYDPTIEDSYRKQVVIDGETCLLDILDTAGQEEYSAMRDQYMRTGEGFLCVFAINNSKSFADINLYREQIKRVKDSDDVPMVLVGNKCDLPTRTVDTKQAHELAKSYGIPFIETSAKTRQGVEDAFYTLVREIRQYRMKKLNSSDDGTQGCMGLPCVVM
Structure (SMILES),NRAS/KRAS (ratio of KD value with respect to NRAS to KD value with respect to KRAS) [1],HRAS/KRAS (ratio of KD value with respect to HRAS to KD value with respect to KRAS) [2],NRAS/KRAS (ratio of KD value for NRAS to KD value for KRAS) [1],HRAS/KRAS (ratio of KD value for HRAS to KD value for KRAS) [2]
CCO[C@@H]1C[C@H]2C(=O)NC3(CCC3)C(=O)N(C)[C@@H](C3CCCC3)C(=O)N(C)[C@H](C(=O)N3CCOCC3)CC(=O)N(C)[C@@H](CC(C)C)C(=O)N[C@@H]([C@H](C)CC)C(=O)N(C)CC(=O)N(C)[C@H]3CCCCN(C3=O)[C@@H](Cc3ccc(C(F)(F)F)cc3)C(=O)N(C)CC(=O)N[C@@H](CCc3cc(F)c(C(F)(F)F)c(F)c3)C(=O)N2C1 [PP0806],B (a compound having 3 or more and less than 10 is denoted as B),B (a compound having 3 or more and less than 10 is denoted as B),–,–
CCO[C@@H]1C[C@H]2C(=O)NC3(CCC3)C(=O)N(C)[C@@H](C3CCCC3)C(=O)N(C)[C@H](C(=O)N3CCOCC3)CC(=O)N(C)[C@@H](CC(C)C)C(=O)N[C@@H]([C@H](C)CC)C(=O)N(C)CC(=O)N(C)[C@H]3CCCCCN(C3=O)[C@@H](Cc3ccc(C(F)(F)F)cc3)C(=O)N(C)CC(=O)N[C@@H](CCc3cc(F)c(C(F)(F)F)c(F)c3)C(=O)N2C1 [PP0815],–,–,B (a compound having 3 or more and less than 10 is denoted as B),B (a compound having 3 or more and less than 10 is denoted as B)
CCO[C@@H]1C[C@H]2C(=O)NC3(CCC3)C(=O)N(C)[C@@H](C3CCCC3)C(=O)N(C)[C@H](C(=O)N3CCOCC3)CC(=O)N(C)[C@@H](CC(C)C)C(=O)N[C@@H](C3CC(F)(F)C3)C(=O)N(C)CC(=O)N(C)[C@H]3CCCCCN(C3=O)[C@@H](Cc3ccc(C(F)(F)F)cc3)C(=O)N(C)CC(=O)N[C@@H](CCc3cc(F)c(C(F)(F)F)c(F)c3)C(=O)N2C1 [PP0816],–,–,A (a compound having 10 or more and less than 20 is denoted as A),B (a compound having 3 or more and less than 10 is denoted as B)
CC[C@H](C)[C@@H]1NC(=O)[C@H](CC(C)C)N(C)C(=O)C[C@@H](C(=O)N2CCOCC2)N(C)C(=O)[C@H](C2CCCC2)N(C)C(=O)C2(CCC2)NC(=O)[C@]2(C)CCCN2C(=O)[C@H](CCc2cc(F)c(C(F)(F)F)c(F)c2)NC(=O)CN(C)C(=O)[C@H](Cc2ccc(C(F)(F)F)cc2)N2CCCCC[C@@H](C2=O)N(C)C(=O)CN(C)C1=O [PP0817],–,–,A (a compound having 10 or more and less than 20 is denoted as A),B (a compound having 3 or more and less than 10 is denoted as B)
CCO[C@@H]1C[C@H]2C(=O)NC3(CCC3)C(=O)N(C)[C@@H](C(CC)CC)C(=O)N(C)[C@H](C(=O)N3CCOCC3)CC(=O)N(C)[C@@H](CC(C)C)C(=O)N[C@@H]([C@@H](C)CC)C(=O)N(C)CC(=O)N(C)[C@H]3CCCCCN(C3=O)[C@@H](Cc3ccc(C(F)(F)F)cc3)C(=O)N(C)CC(=O)N[C@@H](CCc3cc(F)c(C(F)(F)F)c(F)c3)C(=O)N2C1 [PP0820],–,–,A (a compound having 10 or more and less than 20 is denoted as A),B (a compound having 3 or more and less than 10 is denoted as B)
CCO[C@@H]1C[C@H]2C(=O)NC3(CCC3)C(=O)N(C)[C@@H]([C@H](C)CC)C(=O)N(C)[C@H](C(=O)N3CCOCC3)CC(=O)N(C)[C@@H](CC(C)C)C(=O)N[C@@H]([C@@H](C)CC)C(=O)N(C)CC(=O)N(C)[C@H]3CCCCCN(C3=O)[C@@H](Cc3ccc(C(F)(F)F)cc3)C(=O)N(C)CC(=O)N[C@@H](CCc3cc(F)c(C(F)(F)F)c(F)c3)C(=O)N2C1 [PP0821],–,–,A (a compound having 10 or more and less than 20 is denoted as A),B (a compound having 3 or more and less than 10 is denoted as B)
CCO[C@@H]1C[C@H]2C(=O)NC3(CCC3)C(=O)N(C)[C@@H](C3CCCC3)C(=O)N(C)[C@H](C(=O)N3CCOCC3)CC(=O)N(C)[C@@H](CC(C)C)C(=O)N[C@@H]([C@@H](C)CC)C(=O)N(C)CC(=O)N(C)[C@H]3CC=C(C)CN(C3=O)[C@@H](Cc3ccc(C(F)(F)F)cc3)C(=O)N(C)CC(=O)N[C@@H](CCc3cc(F)c(C(F)(F)F)c(F)c3)C(=O)N2C1 [PP0826],–,–,C (A compound having a KD ratio of 0.1 or more and less than 3 is denoted as C),B (a compound having 3 or more and less than 10 is denoted as B)
CCO[C@@H]1C[C@H]2C(=O)NC3(CCC3)C(=O)N(C)[C@@H](C3CCCC3)C(=O)N(C)[C@H](C(=O)N3CCOCC3)CC(=O)N(C)[C@@H](CC(C)C)C(=O)N[C@@H]([C@@H](C)CC)C(=O)N(C)CC(=O)N(C)[C@H]3C[C@H]4C[C@H]4CN(C3=O)[C@@H](Cc3ccc(C(F)(F)F)cc3)C(=O)N(C)CC(=O)N[C@@H](CCc3cc(F)c(C(F)(F)F)c(F)c3)C(=O)N2C1 [PP0829],–,–,B (a compound having 3 or more and less than 10 is denoted as B),C (A compound having a KD ratio of 0.1 or more and less than 3 is denoted as C)
CC[C@H](C)[C@@H]1NC(=O)[C@H](COC)N(C)C(=O)C[C@@H](C(=O)N2CCOCC2)N(C)C(=O)[C@H](C2CCCC2)N(C)C(=O)C2(CCC2)NC(=O)[C@@H]2CC(F)(F)CN2C(=O)[C@H](CCc2cc(F)c(C(F)(F)F)c(F)c2)NC(=O)CN(C)C(=O)[C@H](Cc2ccc(C(F)(F)F)cc2)N2CCCCC[C@@H](C2=O)N(C)C(=O)CN(C)C1=O [PP0834],–,–,A (a compound having 10 or more and less than 20 is denoted as A),B (a compound having 3 or more and less than 10 is denoted as B)
CCOC[C@H]1C(=O)N[C@@H]([C@@H](C)CC)C(=O)N(C)CC(=O)N(C)[C@H]2CCCCCN(C2=O)[C@@H](Cc2ccc(C(F)(F)F)cc2)C(=O)N(C)CC(=O)N[C@@H](CCc2cc(F)c(C(F)(F)F)c(F)c2)C(=O)N2C[C@H](OCC)C[C@H]2C(=O)NC2(CCC2)C(=O)N(C)[C@@H](C2CCCC2)C(=O)N(C)[C@H](C(=O)N2CCOCC2)CC(=O)N1C [PP0851],–,–,B (a compound having 3 or more and less than 10 is denoted as B),B (a compound having 3 or more and less than 10 is denoted as B)
CCO[C@@H]1C[C@H]2C(=O)NC3(CCC3)C(=O)N(C)[C@@H](C3CCCC3)C(=O)N(C)[C@H](C(=O)N3CCOCC3)CC(=O)N(C)[C@@H](COC3CC3)C(=O)N[C@@H]([C@@H](C)CC)C(=O)N(C)CC(=O)N(C)[C@H]3CCCCCN(C3=O)[C@@H](Cc3ccc(C(F)(F)F)cc3)C(=O)N(C)CC(=O)N[C@@H](CCc3cc(F)c(C(F)(F)F)c(F)c3)C(=O)N2C1 [PP0852],–,–,B (a compound having 3 or more and less than 10 is denoted as B),B (a compound having 3 or more and less than 10 is denoted as B)
CC[C@H](C)[C@@H]1NC(=O)[C@H](CC(C)C)N(C)C(=O)C[C@@H](C(=O)N2CCOCC2)N(C)C(=O)[C@H](C2CCCC2)N(C)C(=O)C2(CCC2)NC(=O)[C@@H]2C[C@@H](O)CN2C(=O)[C@H](CCc2cc(F)c(C(F)(F)F)c(F)c2)NC(=O)CN(C)C(=O)[C@H](Cc2ccc(C(F)(F)F)cc2)N2CCCCC[C@@H](C2=O)N(C)C(=O)CN(C)C1=O [PP0871],–,–,B (a compound having 3 or more and less than 10 is denoted as B),B (a compound having 3 or more and less than 10 is denoted as B)
CC[C@H](C)[C@@H]1NC(=O)[C@H](CC(C)C)N(C)C(=O)C[C@@H](C(=O)N2CCOCC2)N(C)C(=O)[C@H](C2CCCC2)N(C)C(=O)C2(CCC2)NC(=O)[C@@H]2[C@@H](O)CCN2C(=O)[C@H](CCc2cc(F)c(C(F)(F)F)c(F)c2)NC(=O)CN(C)C(=O)[C@H](Cc2ccc(C(F)(F)F)cc2)N2CCCCC[C@@H](C2=O)N(C)C(=O)CN(C)C1=O [PP0872],–,–,A (a compound having 10 or more and less than 20 is denoted as A),A (a compound having 10 or more and less than 20 is denoted as A)
CC[C@H](C)[C@@H]1NC(=O)[C@H](CC(C)C)N(C)C(=O)C[C@@H](C(=O)N2CCOCC2)N(C)C(=O)[C@H](C2CCCC2)N(C)C(=O)C2(CCC2)NC(=O)[C@@H]2[C@H](O)CCN2C(=O)[C@H](CCc2cc(F)c(C(F)(F)F)c(F)c2)NC(=O)CN(C)C(=O)[C@H](Cc2ccc(C(F)(F)F)cc2)N2CCCCC[C@@H](C2=O)N(C)C(=O)CN(C)C1=O [PP0873],–,–,A (a compound having 10 or more and less than 20 is denoted as A),B (a compound having 3 or more and less than 10 is denoted as B)
C=CCCC[C@H]1C(=O)N[C@@H]([C@@H](C)CC)C(=O)N(C)CC(=O)N(C)[C@H]2CCCCCN(C2=O)[C@@H](Cc2ccc(C(F)(F)F)cc2)C(=O)N(C)CC(=O)N[C@@H](CCc2cc(F)c(C(F)(F)F)c(F)c2)C(=O)N2C[C@H](OCC)C[C@H]2C(=O)N[C@](C)(CC=C)C(=O)N(C)[C@@H](C2CCCC2)C(=O)N(C)[C@H](C(=O)N2CCOCC2)CC(=O)N1C [PP0880],–,–,B (a compound having 3 or more and less than 10 is denoted as B),B (a compound having 3 or more and less than 10 is denoted as B)
CCCN1C(=O)CN(C)C(=O)CN(C)C(=O)[C@H]([C@@H](C)CC)NC(=O)[C@@H]2CCCCOc3ccc(cc3)C[C@H]1C(=O)N(C)CC(=O)N[C@@H](CCc1cc(F)c(C(F)(F)F)c(F)c1)C(=O)N1C[C@H](OCC)C[C@H]1C(=O)NC1(CCCC1)C(=O)N(C)[C@@H](C1CCCC1)C(=O)N(C)[C@H](C(=O)N(C)C)CC(=O)N2C [PP0894],–,–,C (A compound having a KD ratio of 0.1 or more and less than 3 is denoted as C),C (A compound having a KD ratio of 0.1 or more and less than 3 is denoted as C)
